Assay results reported in PubChem BioAssay AID1996.
≈ marks a conversion by molar mass, not a printed value.

conditions: buffer; pH 7.4; 200.0 µM

Q: For `N#Cc1ccc(C2N=C(c3ccccc3)NO2)cc1` (centres undefined), which solubility kinetic is on record?
A: 15.3 µg/mL (≈ 61.4 µM)

Q: Which solubility kinetic does the source give for `O=c1[nH]c(N2CCCCC2)nc2ncn(Cc3ccccc3)c12` here?
A: 33.3 µg/mL (≈ 108 µM)

Q: For `Cc1nc(NC(=O)CSc2nncs2)c(Cl)cc1Cl`, which solubility kinetic is on record?
A: > 50.3 µg/mL

Q: For `CCCCc1nnc(NC(=O)C(=O)OCC)s1`, which solubility kinetic is on record?
A: > 38.6 µg/mL

Q: With `COc1ccccc1CNS(=O)(=O)c1ccc(Cl)s1` as the compound, how does the solubility kinetic read?
A: > 47.7 µg/mL

Q: For `Cc1oc(-c2cccs2)nc1CN1CCC(C(=O)N2CCCC2)CC1`, which solubility kinetic is on record?
A: > 53.9 µg/mL

Q: With `Cn1c(=O)n(CC(N)=O)c(=O)c2c1nc1n2CCCN1Cc1ccccc1` as the compound, how does the solubility kinetic read?
A: 30.8 µg/mL (≈ 83.6 µM)

Q: For `CCN(CC)c1ccc2c(C)c(Cl)c(=O)oc2c1`, which solubility kinetic is on record?
A: 6.3 µg/mL (≈ 23.7 µM)

Q: Which solubility kinetic does the source give for `Cc1nc(SCCOc2ccccc2F)[nH]c(=O)c1Cc1ccccc1` here?
A: 0.6 µg/mL (≈ 1.62 µM)

Q: With `COc1cc(OC)cc(C(=O)NCCSCc2ccc(Cl)cc2)c1` as the compound, how does the solubility kinetic read?
A: 5.2 µg/mL (≈ 14.2 µM)

Q: With `CCC(=O)NCCNc1nc2cc(C)cc(C)c2cc1C#N` as the compound, how does the solubility kinetic read?
A: 3.7 µg/mL (≈ 12.5 µM)

Q: With `Clc1cccc(Cl)c1CN1CCN(c2ncccn2)CC1` as the compound, how does the solubility kinetic read?
A: 17.2 µg/mL (≈ 53.2 µM)

Q: With `COc1ccccc1C(=O)Nc1ccc(NC(=O)C2CCCCC2)nc1` as the compound, how does the solubility kinetic read?
A: 0.9 µg/mL (≈ 2.55 µM)

Q: For `COc1cc([N+](=O)[O-])ccc1N1C(=O)C2C3C=CC(C4CC34)C2C1=O` (centres undefined), which solubility kinetic is on record?
A: 7.2 µg/mL (≈ 21.2 µM)

Q: With `COc1ccc(-c2csc(NC3CCCCC3)n2)c(OC)c1` as the compound, how does the solubility kinetic read?
A: 10.3 µg/mL (≈ 32.3 µM)

Q: With `CC(C)c1ccc(NC2CCCN(C(=O)c3ccsc3)C2)cc1` (centres undefined) as the compound, how does the solubility kinetic read?
A: > 49.3 µg/mL

Q: For `CCCc1c(C)nc(N2CCN(c3ccc(F)cc3)CC2)[nH]c1=O`, which solubility kinetic is on record?
A: 1.2 µg/mL (≈ 3.63 µM)

Q: With `CCN(Cc1nc(-c2ccccc2)no1)C(=O)c1ccoc1C` as the compound, how does the solubility kinetic read?
A: 40.2 µg/mL (≈ 129 µM)

Q: Which solubility kinetic does the source give for `O=C(Nc1cc(Cl)ccc1Cl)c1ccco1` here?
A: 7.6 µg/mL (≈ 29.7 µM)

Q: Which solubility kinetic does the source give for `C#CCOC(=O)Nc1ccc(OCC(F)(F)F)nc1` here?
A: 19.2 µg/mL (≈ 70 µM)

Q: Which solubility kinetic does the source give for `O=C(CN1c2cccc3cccc(c23)S1(=O)=O)Nc1ccccc1` here?
A: 0.4 µg/mL (≈ 1.18 µM)

Q: For `FC(F)(F)c1ccccc1-n1c(-c2cnccn2)n[nH]c1=S`, which solubility kinetic is on record?
A: > 48.5 µg/mL

Q: For `O=C(O)c1ccccc1Nc1cc(Cl)c2nonc2c1[N+](=O)[O-]`, which solubility kinetic is on record?
A: 43.3 µg/mL (≈ 129 µM)

Q: Which solubility kinetic does the source give for `COc1cc(NC(=S)N2CCN(C)CC2)cc(OC)c1` here?
A: > 44.3 µg/mL

Q: For `COc1ccc(OC)c(CNS(=O)(=O)c2cn(C)cn2)c1`, which solubility kinetic is on record?
A: 46.5 µg/mL (≈ 149 µM)

Q: For `C=CCN(CC(=O)Nc1cccnc1)S(=O)(=O)c1ccc(Cl)cc1`, which solubility kinetic is on record?
A: > 54.9 µg/mL

Q: Which solubility kinetic does the source give for `COc1cc(/C(C)=N/NC(=O)CSc2nnc(C)s2)ccc1O` here?
A: > 52.9 µg/mL

Q: Which solubility kinetic does the source give for `CC1CCN(C(=O)CC#N)CC1` here?
A: > 24.9 µg/mL

Q: With `CN1CCN(C(=O)c2ccc(CNS(=O)(=O)c3ccc(F)c(Cl)c3)cc2)CC1` as the compound, how does the solubility kinetic read?
A: 59.4 µg/mL (≈ 139 µM)

Q: Which solubility kinetic does the source give for `CC(C)CNS(=O)(=O)c1ccc(CCC(=O)NC2CCCCC2)cc1` here?
A: 10.5 µg/mL (≈ 28.6 µM)

Q: With `c1ccc(-c2nc(NC3CCCC3)c3ccccc3n2)cc1` as the compound, how does the solubility kinetic read?
A: 3.1 µg/mL (≈ 10.7 µM)

Q: With `O=C(CN1C(=O)C(=O)N(Cc2ccco2)C1=O)Nc1ccc(F)c(F)c1F` as the compound, how does the solubility kinetic read?
A: 52.4 µg/mL (≈ 137 µM)

Q: For `COC(=O)c1nn(-c2ccc(OC)cc2)ccc1=O`, which solubility kinetic is on record?
A: > 39 µg/mL

Q: Which solubility kinetic does the source give for `CN(C)CCSC1c2ccccc2CSc2ccccc21.Cl` (centres undefined) here?
A: 51.6 µg/mL

Q: With `COc1ccccc1Nc1nc(NCCC(C)C)nc(N)c1[N+](=O)[O-]` as the compound, how does the solubility kinetic read?
A: < 0.1 µg/mL

Q: Which solubility kinetic does the source give for `S=C1NCN(Cc2ccco2)CN1CCc1ccccc1` here?
A: 9.6 µg/mL (≈ 31.8 µM)

Q: With `O=C(Nc1ccc(F)cc1)c1ccc2nsnc2c1` as the compound, how does the solubility kinetic read?
A: 5.4 µg/mL (≈ 19.8 µM)

Q: For `O=C(c1ccccc1)N1CCN(CCc2ccccc2)CC1`, which solubility kinetic is on record?
A: 40.7 µg/mL (≈ 138 µM)

Q: Which solubility kinetic does the source give for `O=C(CN1C(=O)C(=O)N(C2CCCC2)C1=O)Nc1cc(Cl)ccc1[N+](=O)[O-]` here?
A: 26.6 µg/mL (≈ 67.4 µM)

Q: Which solubility kinetic does the source give for `COc1ccc(OC)c(/C=C/c2[nH]c(=O)[nH]c(=O)c2[N+](=O)[O-])c1` here?
A: 35.1 µg/mL (≈ 110 µM)

Q: For `O=C(NC(=S)Nc1ccccc1Br)c1ccco1`, which solubility kinetic is on record?
A: 3.1 µg/mL (≈ 9.53 µM)

Q: Which solubility kinetic does the source give for `Cc1ccc(/C=C/C(=O)NC2CCS(=O)(=O)C2)cc1` (centres undefined) here?
A: 40.2 µg/mL (≈ 144 µM)

Q: Which solubility kinetic does the source give for `CCOC(=O)/C(C(=Nc1ccccc1)Nc1ccccc1)=C(\C)O` here?
A: 29.5 µg/mL (≈ 90.9 µM)

Q: Which solubility kinetic does the source give for `CCN(CC)S(=O)(=O)c1cccc(C(=O)Nc2cc(C)on2)c1` here?
A: 13.4 µg/mL (≈ 39.7 µM)

Q: Which solubility kinetic does the source give for `CCN(CC)c1ccc(C(=S)NC2CCCCC2)cc1` here?
A: 2 µg/mL (≈ 6.89 µM)

Q: For `O=C(Nc1ccc(Cl)cc1F)c1cccc2ccccc12`, which solubility kinetic is on record?
A: 1 µg/mL (≈ 3.34 µM)

Q: With `C/C=C/c1ccc(OCc2cc(=O)n3cc(C)ccc3n2)c(OC)c1` as the compound, how does the solubility kinetic read?
A: 9.1 µg/mL (≈ 27.1 µM)

Q: Which solubility kinetic does the source give for `Nc1nc(NCCOCCO)nc(NCc2ccccc2)c1[N+](=O)[O-]` here?
A: > 52.3 µg/mL

Q: Which solubility kinetic does the source give for `COc1ccc2[nH]c(C(=O)Nc3ccc4c(c3)OCO4)cc2c1` here?
A: 1.1 µg/mL (≈ 3.54 µM)

Q: With `Cn1c(N)c(C(C[N+](=O)[O-])c2c(F)cccc2Cl)c(=O)n(C)c1=O` (centres undefined) as the compound, how does the solubility kinetic read?
A: > 53.5 µg/mL

Q: For `O=[N+]([O-])c1ccc2nc(-c3ccccn3)[nH]c2c1`, which solubility kinetic is on record?
A: 5 µg/mL (≈ 20.8 µM)

Q: With `NS(=O)(=O)c1ccc(NC(=O)Nc2ccc(S(N)(=O)=O)cc2)cc1` as the compound, how does the solubility kinetic read?
A: 9.7 µg/mL (≈ 26.2 µM)

Q: Which solubility kinetic does the source give for `COc1cc(OC)cc(C(=O)OCC(=O)N2CCCC2)c1` here?
A: > 44 µg/mL

Q: For `O=C(CN1C(=O)NC2(CCOc3ccccc32)C1=O)NCCc1ccccc1` (centres undefined), which solubility kinetic is on record?
A: > 56.9 µg/mL

Q: For `CC1CC(OCC(O)CN2CCCCC2C)CC(C)(C)C1.Cl` (centres undefined), which solubility kinetic is on record?
A: > 50.1 µg/mL

Q: With `Cc1cc(C(=O)N(C)CC(=O)Nc2ccc(F)c(F)c2F)no1` as the compound, how does the solubility kinetic read?
A: > 49.1 µg/mL

Q: With `Cc1ccc(CNC(=O)c2cc(=O)c3ccccc3o2)cc1` as the compound, how does the solubility kinetic read?
A: 3 µg/mL (≈ 10.2 µM)

Q: Which solubility kinetic does the source give for `O=C(Nc1cc(C(F)(F)F)ccc1N1CCOCC1)c1ccncc1` here?
A: > 52.7 µg/mL

Q: With `CCCCN(C)c1c(N2CCC(C(=O)OCC)CC2)c(=O)c1=O` as the compound, how does the solubility kinetic read?
A: > 48.4 µg/mL
